Source: PubChem BioAssay (NCI)
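In this assay, cells in 96-well plates receive the compound at five concentrations for 48 hours. Endpoints are linearly interpolated between the surrounding concentrations. TGI denotes the concentration required for complete inhibition of growth.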

Columns and labels:
Assay in all cases: NCI-60 cell line screen, 48 h
UACC-62 melanoma = system: UACC-62 melanoma
NCI-H23 lung = system: NCI-H23 lung
SK-MEL-5 melanoma = system: SK-MEL-5 melanoma
OVCAR-4 ovarian = system: OVCAR-4 ovarian
DU-145 prostate = system: DU-145 prostate
A498 renal = system: A498 renal
SF-268 CNS = system: SF-268 CNS
HS 578T breast = system: HS 578T breast
MCF7 breast = system: MCF7 breast
SK-OV-3 ovarian = system: SK-OV-3 ovarian
HOP-92 NSCLC = system: HOP-92 NSCLC
CCRF-CEM leukemia = system: CCRF-CEM leukemia
MALME-3M melanoma = system: MALME-3M melanoma
NCI-H522 lung = system: NCI-H522 lung
UACC-257 melanoma = system: UACC-257 melanoma
HCC-2998 colon = system: HCC-2998 colon
HL-60(TB) leukemia = system: HL-60(TB) leukemia
K-562 leukemia = system: K-562 leukemia
SNB-75 CNS = system: SNB-75 CNS
M14 melanoma = system: M14 melanoma
NCI-H226 lung = system: NCI-H226 lung
MDA-N = system: MDA-N
SF-539 CNS = system: SF-539 CNS
UO-31 renal = system: UO-31 renal
SF-295 CNS = system: SF-295 CNS
SNB-19 CNS = system: SNB-19 CNS
OVCAR-8 ovarian = system: OVCAR-8 ovarian
EKVX NSCLC = system: EKVX NSCLC
IGROV1 ovarian = system: IGROV1 ovarian
MDA-MB-435 = system: MDA-MB-435
RPMI-8226 leukemia = system: RPMI-8226 leukemia
U251 CNS = system: U251 CNS
786-0 renal = system: 786-0 renal
NCI/ADR-RES ovarian = system: NCI/ADR-RES ovarian
MDA-MB-231 breast = system: MDA-MB-231 breast
HCT-116 colon = system: HCT-116 colon
CAKI-1 renal = system: CAKI-1 renal
TK-10 renal = system: TK-10 renal
HCT-15 colon = system: HCT-15 colon
NCI-H460 lung = system: NCI-H460 lung
RXF 393 renal = system: RXF 393 renal
SK-MEL-2 melanoma = system: SK-MEL-2 melanoma
LOX IMVI melanoma = system: LOX IMVI melanoma
SW-620 colon = system: SW-620 colon
KM12 colon = system: KM12 colon
A549 NSCLC = system: A549 NSCLC
OVCAR-5 ovarian = system: OVCAR-5 ovarian
PC-3 prostate = system: PC-3 prostate
SK-MEL-28 melanoma = system: SK-MEL-28 melanoma
MOLT-4 leukemia = system: MOLT-4 leukemia
HT29 colon = system: HT29 colon
ACHN renal = system: ACHN renal
OVCAR-3 ovarian = system: OVCAR-3 ovarian
BT-549 breast = system: BT-549 breast
COLO 205 colon = system: COLO 205 colon
SN12C renal = system: SN12C renal
T-47D breast = system: T-47D breast
HOP-62 NSCLC = system: HOP-62 NSCLC

Measured: TGI

O=C(NNS(=O)(=O)c1ccccc1)c1cccnc1
> 100 µM: all assays above

Cc1cc(O)c(/C=N/C(=S)Nc2ccccc2)c(=O)o1
not listed: MALME-3M melanoma | SK-MEL-28 melanoma
> 100 µM: all other assays above
